# Assay results: ChEMBL document CHEMBL4831481, “Semisynthesis, Antiplasmodial Activity, and Mechanism of Action Studies of Isocoumarin Derivatives” (J Nat Prod, 2021)
# Activity calls are given as the source filed them. The rule behind the calls is not given here.
# Experiments:
# [1] = tested on: Hemozoin; experiment: Inhibition of beta-hematin formation in Plasmodium falciparum assessed as decrease in beta-hematin; set-up: scale not given: the % may be the effect or the level left
# [2] = molecular target: T1, DNA gyrase (Escherichia coli) (UniProt P0AES6+P0AES4); experiment: Inhibition of Escherichia coli DNA gyrase at 50 uM by fluorescence based assay relative to control; assay type: protein-complex assay
# [3] = Selectivity index, ratio of CC50 for African green monkey Vero cells to IC50 for Plasmodium falciparum HB3 infected in human erythrocytes assessed as reduction in parasite growth; assay type: toxicity, cell-based; details: read-out: Ratio CC50/IC50
# [4] = tested on: Vero; experiment: Cytotoxicity against African green monkey Vero cells assessed as reduction in cell viability by MTT assay; assay type: functional; details: Chlorocebus sabaeus
# [5] = tested on: Plasmodium falciparum; experiment: Antiplasmodial activity against Plasmodium falciparum HB3 infected in human erythrocytes assessed as reduction in parasite growth incubated for 48 hrs by PicoGreen DNA fluorescent dye; assay type: functional, organism-based; details: HB3, 48 h
# [6] = tested on: Trypanosoma cruzi; experiment: Antitrypanosomal activity against Trypanosoma cruzi amastigotes infected in African green monkey Vero cells incubated for 5 days by chlorophenol red-beta-D-galactoside based colorimetric analysis; assay type: functional, organism-based; details: 120 h
# [7] = molecular target: T1, DNA gyrase (Escherichia coli); experiment: Inhibition of Escherichia coli DNA gyrase at 100 uM by fluorescence based assay relative to control; assay type: protein-complex assay
# [8] = tested on: Plasmodium falciparum; experiment: Induction of reactive oxygen species generation in schizont stage Plasmodium falciparum HB3 incubated for 3 hrs at 10 uM by CM-H2DCFDA dye based fluorescence assay relative to control; assay type: functional, organism-based
# [9] = Disruption of cell membrane integrity in red blood cells incubated for 3 hrs at 10 uM and measured by propidium iodide incorporation assay relative to control; assay type: ADME, cell membranes
# [10] = tested on: Trypanosoma cruzi; experiment: Antitrypanosomal activity against Trypanosoma cruzi amastigotes infected in African green monkey Vero cells incubated for 5 days at 10 ug/mL by chlorophenol red-beta-D-galactoside based colorimetric analysis relative to control; assay type: functional; details: 120 h, time 5 day, read-out: GI
# [11] = tested on: Plasmodium falciparum; experiment: […] activity in schizont stage Plasmodium falciparum HB3 assessed as reduction in mitochondrial membrane potential at 10 uM incubated for 20 mins and measured after 3 hrs by DiOC6-staining based fluorometry analysis relative to control; assay type: functional, organism-based
# [12] = tested on: MCF7; experiment: Growth inhibition of human MCF7 cells at 10 ug/mL relative to control; assay type: functional; details: read-out: GI
# [13] = tested on: Leishmania donovani; experiment: Antileishmanial activity against Leishmania donovani axenic amastigotes at 10 ug/mL assessed as growth inhibition relative to control; assay type: functional; details: read-out: GI
# [14] = tested on: Plasmodium falciparum HB3; experiment: Disruption of cell membrane integrity in schizont stage Plasmodium falciparum HB3 infected red blood cells incubated for 3 hrs at 10 uM and measured by propidium iodide incorporation assay relative to control; assay type: cell membranes
# [15] = molecular target: T1, DNA gyrase (Escherichia coli); experiment: Inhibition of Escherichia coli DNA gyrase at 10 uM by fluorescence based assay relative to control; assay type: protein-complex assay
# [16] = tested on: Erythrocyte; experiment: Hemolytic activity against red blood cells assessed as hemolysis at 10 uM incubated for 24 hrs by spectrophotometric analysis relative to control; assay type: ADME, cell-based
# [17] = tested on: Plasmodium falciparum; experiment: Induction of apoptosis in schizont stage Plasmodium falciparum HB3 infected red blood cells assessed as caspase activity measured by FLICA reagent based fluorescence assay; assay type: functional, organism-based
compound,measurement,setting,value
CCN(CC)CCCC(C)Nc1ccnc2cc(Cl)ccc12 (configuration not stated),Activity,[1],68.2%
same,inhibition,[2],inactive
CCC[C@H]1C[C@H]2OC(=O)c3c(cc(OC)c(OC)c3O)[C@H]2O1 [MONOCERIN],selectivity ratio,[3],77
same,CC50,[4],87.5 µM
same,IC50,[5],1.13 µM
CCC[C@H]1C[C@H]2OC(=O)c3c(cc(OC)c(OC)c3OC(C)=O)[C@H]2O1,selectivity ratio,[3],161
same,CC50,[4],124 µM
same,IC50,[5],0.77 µM
COc1cc2c(c(O)c1OC)C(=O)O[C@@H]1C[C@H](C[C@H](C)O)O[C@H]21,selectivity ratio,[3],22
same,CC50,[4],262 µM
same,IC50,[5],11.7 µM
CCC[C@H]1C[C@H]2OC(=O)c3c(cc(O)c(O)c3OCc3cc(C(F)(F)F)cc(C(F)(F)F)c3)[C@H]2O1,IC50,[6],11.9 µM
CCC[C@H]1C[C@H]2OC(=O)c3c(cc(O)c(O)c3OCc3cccc(C(F)(F)F)c3)[C@H]2O1,IC50,[6],13.6 µM
COC(=O)CC[C@H]1C[C@H]2OC(=O)c3c(cc(OC)c(OC)c3O)[C@H]2O1,selectivity ratio,[3],41
same,CC50,[4],106 µM
same,IC50,[5],2.58 µM
CC/C(=C(\c1ccccc1)c1ccc(OCCN(C)C)cc1)c1ccccc1,inhibition,[7],Active
CCC[C@H](O)C[C@H]1OC(=O)c2c(cc(OC)c(OC)c2O)[C@H]1OC,Activity,[8],inactive
same,Activity,[9],Non-Toxic
same,inhibition of growth at 10 µg/mL,[10],0%
same,Activity,[11],Active
same,Activity,[1],51.1%
same,selectivity ratio,[3],675
same,CC50,[4],258 µM
same,IC50,[5],0.38 µM
same,inhibition of growth at 10 µg/mL,[12],0%
same,inhibition of growth at 10 µg/mL,[13],0%
same,Activity,[14],inactive
same,inhibition,[15],48%
same,Activity,[16],Non-Toxic
same,Activity,[17],inactive
CCC[C@H]1C[C@H]2OC(=O)c3c(cc(O)c(O)c3OCc3ccc(C(F)(F)F)cc3)[C@H]2O1,IC50,[6],12.4 µM
